Common to all, as to assay type: in vivo, rat
Experiment [1] concerns Spontaneous Hypertensive Rats (SHR). In words: Single oral administration of S1PC and SAC to spontaneous hypertensive rats, systolic blood pressure (Test Example 2). The settings on record: SHR/Izm rats, single oral dose 1 mg/kg, S1PC effect 3 hours after the administration, Bonferroni test. As for the experimental part: Effect of Administering S-1-Propenylcysteine (S1PC) and S-Allylcysteine (SAC) to Spontaneous Hypertensive Rats (SHR)
One group of eight 8-week-old male SHR/Izm rats purchased from Japan SLC, Inc. (Hamamatsu-shi) was preliminarily bred for three weeks. During preliminary breeding, handling was performed on the rats, and the rats were bred in a constant environment (temperature; 23±1° C., humidity; 50±10%, light-dark cycle; 12 hours (light period; 7 to 19 o'clock)) and freely fed with an artificial diet (CE-2; CLEA Japan, Inc.) and sterilized tap water.
(§1) The administration was performed by forced oral administration using a disposable feeding needle and the fluid volume to be administered was 10 mL per 1 kg of SHR weight. […]
(§2) Before the start of administration (0 hour) and after the administration (3, 6, and 24 hours), the systolic blood pressure at the base of each tail was measured without anesthesia using a non-preheating, non-invasive blood pressure monitor (MK-2000ST, Muromachi Kikai Co., Ltd.). Note that the measurement was performed five times per individual, the upper and lower values were eliminated, and an average of the remaining measured values was defined as a systolic blood pressure value of the individual. […]

The subject of the next experiment is Normotensive Rats (WKY). In words: Single oral administration of S1PC to normotensive rats, systolic blood pressure (Test Example 4). The settings on record: WKY/Izm rats, single oral dose 6.5 mg/kg, measured 3, 6 and 24 hours. Here is the method: Effect of Administering S-1-Propenylcysteine (S1PC) to Normotensive Rats (WKY)
One group of four 8-week-old male WKY/Izm rats purchased from Japan SLC, Inc. (Hamamatsu-shi) was preliminarily bred for two weeks. During preliminary breeding, handling was performed on the rats, and the rats were bred in a constant environment (temperature; 23±1° C., humidity; 50±10%, light-dark cycle; 12 hours (light period; 7 to 19 o'clock)) and freely fed with an artificial diet (CE-2; CLEA Japan, Inc.) and sterilized tap water.
The administration was performed by forced oral administration using a disposable feeding needle and the fluid volume to be administered was 10 mL per 1 kg of WKY weight. As a sample to be administered, about 15 mg of S-1-propenylcysteine produced in Production Example 2 (a cis- and trans-mixture) was precisely weighed and dissolved in 15 mL of purified water. […]
as §2

The test system of experiment [2] is Spontaneous Hypertensive Rats (SHR). Put plainly: Repeated oral administration of S1PC to spontaneous hypertensive rats for 10 weeks, systolic blood pressure (Test Example 3). The following applies: SHR/Izm rats, 6.5 mg/kg oral once a day for 10 weeks, two-way ANOVA. Here is the method: Effect of Repeated Oral Administration of S-1-Propenylcysteine (S1PC) on Spontaneous Hypertensive Rats (SHR)
One group of ten 8-week-old male SHR/Izm rats purchased from Japan SLC, Inc. (Hamamatsu-shi) was preliminarily bred for two weeks. During preliminary breeding, handling was performed on the rats, and the rats were bred in a constant environment (temperature; 23±1° C., humidity; 50±10%, light-dark cycle; 12 hours (light period; 7 to 19 o'clock)) and freely fed with an artificial diet (CE-2; CLEA Japan, Inc.) and sterilized tap water.
as §1
Before the repeated oral administration (0 hour), and every other week after the administration up to 10 weeks, the systolic blood pressure at the base of each tail was measured without anesthesia using a non-preheating, non-invasive blood pressure monitor (MK-2000ST, Muromachi Kikai Co., Ltd.). Note that the measurement was performed five times per individual, the upper and lower values were eliminated, and an average of the remaining measured values was defined as a systolic blood pressure value of the individual. […]

Experiment [3] shares this test system. Put plainly: Single oral administration of S1PC to spontaneous hypertensive rats, systolic blood pressure (Test Example 1). The following applies: SHR/Izm rats, single oral dose 6.5 mg/kg, 1.5 to 6 hours after the administration, t-test. Here is the method:
Effect of Administering S-1-Propenylcysteine (S1PC) to Spontaneous Hypertensive Rats (SHR)
One group of eight 8-week-old male SHR/Izm rats purchased from Japan SLC, Inc. (Hamamatsu-shi) was preliminarily bred for two weeks. During preliminary breeding, handling was performed on the rats, and the rats were bred in a constant environment (temperature; 23±1° C., humidity; 50±10%, light-dark cycle; 12 hours (light period; 7 to 19 o'clock)) and freely fed with an artificial diet (CE-2; CLEA Japan, Inc.) and sterilized tap water.
The administration was performed by forced oral administration using a disposable feeding needle and the fluid volume to be administered was 10 mL per 1 kg of SHR weight. As a sample to be administered, about 15 mg of S-1-propenylcysteine produced in Production Example 2 (a cis- and trans-mixture) was precisely weighed and dissolved in 15 mL of purified water. […]
Before the start of administration (0 hour) and after the administration (1.5, 3, 6, and 24 hours), the systolic blood pressure at the base of each tail was measured without anesthesia using a non-preheating, non-invasive blood pressure monitor (MK-2000ST, Muromachi Kikai Co., Ltd.). Note that the measurement was performed five times per individual, the upper and lower values were eliminated, and an average of the remaining measured values was defined as a systolic blood pressure value of the individual. […]

As for `CC=CSCC(N)C(=O)O` (centres unmarked) [S-1-propenylcysteine], the “antihypertensive effect (systolic blood pressure) as compared with the control group” value in experiment [1], in experiment [2] and in experiment [3] was “significant antihypertensive effect” each time. For the same compound, the “antihypertensive effect (systolic blood pressure) on normotensive rats” value in the experiment on Normotensive Rats (WKY) is “no significant antihypertensive effect”.

Consider `C=CCSC[C@H](N)C(=O)O` [SAC, S-allylcysteine, reference compound], for which the “antihypertensive effect (systolic blood pressure) as compared with the control group” value in experiment [1] was “no significant antihypertensive effect”.

For the origin of these results see patent publication US10363234B2, “Antihypertensive agent” (WAKUNAGA PHARMACEUTICAL CO., LTD., priority 2015, dated 2019).
